Experimental data: patent publication US7309691B2, “Combined pharmaceutical preparation containing LHRH-analogous substances and anti estrogens for treating gynaecological disorders” (Achering Aktiengesellschaft, priority 1996, dated 2007)

Tests used:
[1] = tested on: experimentally produced endometriosis (cystic endometriosis foci); experiment: Experimentally produced endometriosis in the rat (transplanted endometrium fragments)
Experimental: Fragments of endometrium were transplanted into different regions of the abdominal cavity of 60 animals.
Four weeks later the development of the endometriosis (cystic endometriosis foci) was examined.
The animals were then treated for 4 weeks with the LHRH antagonists Antide (0.5 mg/animal every 3 days s.c.) and Raloxifen (3 mg/animal per day p.o.) in each case alone, or in a combination of the two compounds. At the end the size of the endometriosis foci before the beginning of the treatment was compared with the values after 4 weeks' treatment.
60 animals received the LHRH antagonist Antide and Raloxifen in parallel for the first 2 weeks and Raloxifen alone for the following 2 weeks. The doses were selected as in 1.1.
60 animals received the LHRH antagonist Antide for 2 weeks. On completion of the LHRH administration Raloxifen was then administered for 2 weeks.
Analogously to Example 1, treatment with LHRH antagonists Ac-D-Nal-D-Cpa-D-Pal-Ser-Tyr-D-Cit-Leu-Lys(Mor)-D-Ala-NH2 and Droloxifen was carried out on 40 animals.

[2] = women; literature; cited from earlier work

osteoclast activity ([1]; rat, in vivo) | Compound | endogenous oestrogen levels ([1]; 1.1: 4 weeks' treatment, alone) | regression of the endometriosis foci (size before vs after treatment) ([1]; 1.1: 4 weeks' treatment, Antide 0.5 mg/animal every 3 days s.c., Raloxifen 3 mg/animal per day p.o., each alone or simultaneous combination) | side effects of treatment [2]
increase | Antide | reduction in endogenous oestrogen levels corresponding to an ovariectomy | complete regression | –
– | C#C[C@]1(O)CC[C@H]2[C@@H]3CCC4=Cc5oncc5C[C@]4(C)[C@H]3CC[C@@]21C [danazol] | – | – | androgenisation phenomena
